Measurements reported in patent US20230078764A1 (Yumanity Therapeutics, Inc., priority 2019, published 2023).

How the values were obtained:
human SCD5 = biological target: T1, human SCD5 (Homo sapiens, UniProt Q86SK9); experiment: Growth inhibition of yeast strain expressing human SCD5 as sole desaturase (OLE1 deleted), OD600 readout; format: cell-based; settings: yeast strain expressing human SCD5 as sole desaturase; growth (OD600) after 40 h at 30° C.; read-out: SCD5 IC50
T1 construct: expressed in transfected cells; host or cells: yeast strain with OLE1 deleted, plasmid-borne human SCD5 (selected in SD-Ura)
T1 sequence (Q86SK9 1-330): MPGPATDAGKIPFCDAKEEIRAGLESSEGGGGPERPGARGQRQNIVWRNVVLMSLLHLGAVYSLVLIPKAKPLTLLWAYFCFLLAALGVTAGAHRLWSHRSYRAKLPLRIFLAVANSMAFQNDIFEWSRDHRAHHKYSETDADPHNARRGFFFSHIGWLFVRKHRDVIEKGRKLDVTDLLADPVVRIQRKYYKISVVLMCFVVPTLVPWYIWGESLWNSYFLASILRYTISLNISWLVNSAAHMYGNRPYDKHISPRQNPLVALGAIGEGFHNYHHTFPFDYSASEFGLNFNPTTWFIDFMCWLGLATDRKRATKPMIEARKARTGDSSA

human SCD1 = biological target: T2, human SCD1 (Homo sapiens, UniProt O00767); experiment: Growth inhibition of yeast strain expressing human SCD1 as sole desaturase (OLE1 deleted), OD600 readout; format: cell-based; settings: yeast strain expressing human SCD1 as sole desaturase; growth (OD600) after 40 h at 30° C.; read-out: SCD1 IC50
T2 construct: expressed in transfected cells; host or cells: yeast strain with OLE1 deleted, plasmid-borne human SCD1 (selected in SD-Ura)
T2 sequence (O00767 1-359): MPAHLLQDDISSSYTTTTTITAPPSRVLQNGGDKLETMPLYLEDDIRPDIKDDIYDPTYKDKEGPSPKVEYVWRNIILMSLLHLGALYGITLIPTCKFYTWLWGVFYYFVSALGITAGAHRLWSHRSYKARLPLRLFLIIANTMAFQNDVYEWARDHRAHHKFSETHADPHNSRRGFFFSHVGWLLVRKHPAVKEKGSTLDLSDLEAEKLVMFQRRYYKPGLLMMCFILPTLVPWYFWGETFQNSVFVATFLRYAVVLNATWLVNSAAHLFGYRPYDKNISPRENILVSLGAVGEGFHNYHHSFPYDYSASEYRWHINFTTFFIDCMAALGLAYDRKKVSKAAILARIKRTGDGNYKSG

Row | SMILES | IC50 (human SCD5) | IC50 (human SCD1)
1 | CCCn1nc(C(=O)Nc2ccc(Cc3cccc(Cl)c3)nn2)ccc1=O [Compound 257] | 4.36 µM | > 45 µM
2 | O=C(Nc1ccc(Cc2cccc(F)c2)cn1)c1ccc(=O)n(C2CC2)c1 [Compound 258] | 0.18 µM | 3.86 µM
3 | Cn1cc(C(=O)Nc2ccc(COc3cccc(Cl)c3)nn2)ccc1=O [Compound 259] | 0.57 µM | 5.37 µM
4 | CN1N=C(C(=O)Nc2ccc(COc3cccc(F)c3)cn2)CCC1=O [Compound 260] | 0.17 µM | 4.58 µM
5 | CN1N=C(C(=O)Nc2ccc(COc3cccc(Cl)c3)cn2)CCC1=O [Compound 261] | 0.05 µM | 1.42 µM
6 | Cn1nc(C(=O)Nc2ccc(COc3cccc(Cl)c3)cn2)ccc1=O [Compound 262] | 0.26 µM | 3.98 µM
7 | CCn1cc(C(=O)Nc2ccc(COc3cccc(Cl)c3)cn2)ccc1=O [Compound 264] | 8.84 µM | > 45 µM
8 | CN1N=C(C(=O)Nc2ccc(COc3ccc(F)c(Cl)c3)cn2)CCC1=O [Compound 265] | 0.35 µM | 23.3 µM
9 | Cn1cc(C(=O)Nc2ccc(COc3ccc(F)c(Cl)c3)cn2)ccc1=O [Compound 266] | 0.4 µM | 1.85 µM
10 | Cn1cc(C(=O)Nc2ccc(Cc3cc(F)c(F)c(F)c3)nn2)ccc1=O [Compound 267] | 10.6 µM | > 45 µM
11 | CN1N=C(C(=O)Oc2ccc(NCc3cccc(Br)c3)nc2)CCC1=O [Compound 268] | 3.04 µM | > 45 µM
12 | CN1N=C(C(=O)Oc2ccc(NCc3cc(F)cc(C#N)c3)nc2)CCC1=O [Compound 269] | 0.03 µM | > 45 µM
13 | CN1N=C(C(=O)Nc2ccc(OCc3cc(F)cc(C#N)c3)cn2)CCC1=O [Compound 270] | 6.88 µM | > 45 µM
14 | CN1N=C(C(=O)Nc2ccc(Cc3cccs3)nn2)CCC1=O [Compound 271] | 14.8 µM | > 45 µM
15 | O=C(Nc1ccc(Cc2cccc(F)c2)cn1)c1ccc(=O)n(C2COC2)c1 [Compound 272] | 13 µM | > 45 µM
16 | O=C(Nc1ccc(Cc2cccc(Cl)c2)cn1)c1ccc(=O)n(C2COC2)c1 [Compound 273] | 3.25 µM | > 45 µM
17 | CN1N=C(C(=O)Nc2ccc(Cc3cncc(Cl)c3)cn2)CCC1=O [Compound 274] | 0.76 µM | > 45 µM
18 | Cn1nc(C(=O)Nc2ccc(Cc3cncc(Cl)c3)cn2)ccc1=O [Compound 275] | 3.02 µM | > 45 µM
19 | Cn1cc(C(=O)Nc2ccc(Cc3cncc(Cl)c3)cn2)ccc1=O [Compound 276] | 0.95 µM | > 45 µM
20 | CN1N=C(C(=O)Nc2ccc(Cc3cncc(C(F)(F)F)c3)cn2)CCC1=O [Compound 277] | 13.4 µM | > 45 µM
21 | Cn1nc(C(=O)Nc2ccc(Cc3cc(C(F)(F)F)ccn3)cn2)ccc1=O [Compound 278] | 2.03 µM | 39.9 µM

Row | SMILES | IC50 (human SCD5) | IC50 (human SCD1)
22 | Cn1cc(C(=O)Nc2ccc(Cc3cc(C(F)(F)F)ccn3)cn2)ccc1=O [Compound 279] | 1.96 µM | 21.5 µM
23 | Cn1nc(C(=O)Nc2ccc(Cc3cccc(F)c3)cn2)cc(Br)c1=O [Compound 280] | 0.02 µM | 0.13 µM
24 | CN1N=C(C(=O)Nc2ccc(NCc3cccc(F)c3)cn2)CCC1=O [Compound 281] | 2.75 µM | > 45 µM
25 | COc1cc(Cl)cc(Cc2ccc(NC(=O)c3ccc(=O)n(C)n3)nc2)c1 [Compound 282] | 0.02 µM | 0.21 µM
26 | Cn1c(C(=O)Nc2ccc(Cc3cccc(F)c3)cn2)coc1=O [Compound 283] | 0.27 µM | 2.96 µM
27 | CN(C)C(=O)c1ccc(NC(=O)c2ccc(Cc3cccc(Cl)c3)cn2)cc1 [Compound 284] | 4.52 µM | > 45 µM
28 | O=C(Nc1ccc(Cc2cccc(F)c2)cn1)c1ccn(C2CC2)n1 [Compound 285] | 1.43 µM | 9.41 µM
29 | Cn1nc(C(=O)Nc2ccc(NCc3cccc(Cl)c3)cn2)ccc1=O [Compound 286] | 0.24 µM | 4 µM
30 | O=C(Nc1ccc(Cc2cccc(F)c2)cn1)c1ccc(=O)n(C(F)F)c1 [Compound 287] | 0.14 µM | 0.86 µM
31 | CN1N=C(C(=O)Nc2ccc(/C=C/c3cccc(Cl)c3)nn2)CCC1=O [Compound 288] | 2.52 µM | > 45 µM
32 | CNCc1ccc(C(=O)Nc2ccc(Cc3cccc(Cl)c3)cn2)cn1 [Compound 289] | 9.2 µM | > 45 µM
33 | O=C(Nc1ccc(Cc2cccc(Cl)c2)cn1)c1cnc(CO)c(F)c1 [Compound 290] | 0.01 µM | 0.01 µM
34 | O=C(Nc1ccc(COc2cccc(Cl)c2)cn1)c1ccc(=O)n(C2CC2)c1 [Compound 291] | 4.91 µM | 22.5 µM
35 | O=C(Nc1ccc(COc2cccc(Cl)c2)cn1)c1ccc(CO)nc1 [Compound 292] | 0.01 µM | 2.07 µM
36 | O=C(Nc1ccc(COc2ccc(F)c(Cl)c2)cn1)c1ccc(CO)nc1 [Compound 293] | 0.04 µM | 0.08 µM
37 | CN1N=C(NC(=O)c2ccc(Cc3cccc(C(F)F)c3)cn2)CCC1=O [Compound 294] | 0.3 µM | > 45 µM
38 | O=C(Nc1ccc(Cc2cccc(Cl)c2)cn1)c1ccc(C(F)F)nc1 [Compound 295] | 0.34 µM | 22.5 µM
39 | CN1N=C(C(=O)Nc2ccc(CCc3cccc(Cl)c3)cn2)CCC1=O [Compound 296] | 0.86 µM | > 45 µM
40 | Cn1nc(C(=O)Nc2ccc(CCc3cccc(Cl)c3)cn2)ccc1=O [Compound 297] | 1.2 µM | > 45 µM
41 | Cn1cc(C(=O)Nc2ccc(C3CC3c3ccccc3)cn2)ccc1=O (stereo not drawn) [Compound 298] | 0.34 µM | 2.75 µM
42 | O=C(Nc1ccc(Cc2cccc(Cl)c2)cn1)c1ccc(Br)nc1 [Compound 299] | 3.79 µM | > 45 µM

Row | SMILES | IC50 (human SCD5) | IC50 (human SCD1)
43 | Cn1nc(C(=O)Nc2ccc(Nc3cccc(F)c3)cn2)ccc1=O [Compound 300] | 5.6 µM | > 45 µM
44 | CN(c1ccc(NC(=O)c2ccc(=O)n(C)n2)nc1)c1cccc(F)c1 [Compound 301] | 5.22 µM | > 45 µM
45 | CN(c1ccc(NC(=O)c2ccc(=O)n(C)c2)nc1)c1cccc(F)c1 [Compound 302] | 3.34 µM | > 45 µM
46 | O=C(Nc1ccc(Nc2cccc(Cl)c2)cn1)c1ccc(=O)n(C2CC2)n1 [Compound 303] | 0.97 µM | 4.18 µM
47 | O=C(Nc1ccc(Nc2cccc(F)c2)cn1)c1ccc(=O)n(C2CC2)n1 [Compound 304] | 2.7 µM | > 45 µM
48 | Cn1cc(NC(=O)N2CCC(Oc3cccc(Cl)c3)CC2)ccc1=O [Compound 305] | 6.94 µM | 27 µM
49 | Cn1nc(OC(=O)N2CCC(Oc3cccc(Cl)c3)CC2)ccc1=O [Compound 307] | 0.57 µM | 1.17 µM
50 | Cn1cc(NC(=O)N2CCC(Cc3cccc(Cl)c3)CC2)ccc1=O [Compound 308] | 3.12 µM | 22.8 µM
51 | Cn1nc(NC(=O)N2CCC(Cc3cccc(Cl)c3)CC2)ccc1=O [Compound 309] | 0.05 µM | 0.54 µM
52 | Cn1nc(NC(=O)c2ccc(Cc3cc(F)cc(F)c3)cn2)ccc1=O [Compound 310] | 0.01 µM | 0.14 µM
53 | Cn1cc(NC(=O)c2ccc(Cc3cc(F)cc(F)c3)cn2)ccc1=O [Compound 311] | 0.01 µM | 1.02 µM
54 | Cn1nc(NC(=O)c2ccc(Cc3ccc(F)c(F)c3)cn2)ccc1=O [Compound 312] | 0.03 µM | 1.82 µM
55 | Cn1cc(NC(=O)c2ccc(Cc3ccc(F)c(F)c3)cn2)ccc1=O [Compound 313] | 0.02 µM | 1.86 µM
56 | Cn1cc(C(=O)Nc2ccc(Cc3ccc(F)c(F)c3)cn2)cn1 [Compound 314] | 0.02 µM | 0.1 µM
57 | Cn1cc(C(=O)Nc2ccc(Cc3cc(F)cc(F)c3)cn2)cn1 [Compound 315] | 0.01 µM | 0.01 µM
58 | Cn1cc(C(=O)Nc2ccc(Cc3cc(F)cc(Cl)c3)cn2)cn1 [Compound 316] | 0.01 µM | 0.01 µM
59 | Cn1nc(C(=O)Nc2nc(Br)c(Cc3cccc(F)c3)s2)ccc1=O [Compound 317] | 0.1 µM | 0.98 µM
60 | CCO/C=C/c1ccc(C(=O)Nc2ccc(Cc3cccc(Cl)c3)cn2)cn1 [Compound 318] | 0.05 µM | 0.13 µM
61 | O=C(Nc1ccc(Cc2cccc(Cl)c2)cn1)c1cnc(Cl)c(F)c1 [Compound 319] | 0.46 µM | > 45 µM
62 | C=C(OCC)c1ccc(C(=O)Nc2ccc(Cc3cccc(Cl)c3)cn2)cn1 [Compound 320] | 1.58 µM | > 45 µM
63 | O=C(Nc1ccc(CC2CCCCC2)cn1)c1ccc(CO)cn1 [Compound 321] | 0.01 µM | 0.01 µM
